What follows are compounds tested against BCL6 (Homo sapiens (Human), UniProt P41182) (assay: Immunofluorescence high content imaging of BCL6 degradation in T47D cells). Conditions: T47D cells.
Format: cell-based
Procedure, shortened: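 Read-out is BCL6 immunofluorescence quantified by high-content imaging (10×, 4 fields per well) of T47D breast cancer cells. Cells were exposed for 3 days to degrader in an 11-point, 3-fold serial dilution reaching a final top concentration of 0.1 or 1 μM.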

| SMILES | Dmax [%] | IC50 [nM] |
| --- | --- | --- |
| CNC(=O)COc1cc2cc(Nc3nc(N4CCC(OC5CCC6(CC5)CN(c5ccc7c(c5)C(=O)N(C5CCC(=O)NC5=O)C7=O)C6)CC4)ncc3Cl)ccc2n(C(C)C)c1=O (stereo not shown) [compound 421, 2-{[6-({5-chloro-2-[4-({2-[2-(2,6-dioxopiperidin-3-yl)-1,3-dioxo-2,3-dihydro-1H-isoindol-5-yl]-2-azaspiro[3.5]nonan-7-yl}oxy)piperidin-1-yl]pyrimidin-4-yl}amino)-2-oxo-1-(propan-2-yl)-1,2-dihydroquinolin-3-yl]oxy}-N-methylacetamide] | ≥ 70 | < 10 |
| CNC(=O)COc1cc2cc(Nc3nc(N4CC5(CCN(CC6CCN(c7ccc8c(c7)C(=O)N(C7CCC(=O)NC7=O)C8=O)CC6)CC5)C4)ncc3Cl)ccc2n(C(C)C)c1=O (stereo not shown) [compound 422, 2-{[6-({5-chloro-2-[7-({1-[2-(2,6-dioxopiperidin-3-yl)-1,3-dioxo-2,3-dihydro-1H-isoindol-5-yl]piperidin-4-yl}methyl)-2,7-diazaspiro[3.5]nonan-2-yl]pyrimidin-4-yl}amino)-2-oxo-1-(propan-2-yl)-1,2-dihydroquinolin-3-yl]oxy}-N-methylacetamide] | 50 to 70 | < 10 |
| CNC(=O)COc1cc2cc(Nc3nc(N4CCN(CC5CCN(c6cccc7c6CN(C6CCC(=O)NC6=O)C7=O)CC5)CC4)ncc3Cl)ccc2n(C(C)C)c1=O (stereo not shown) [compound 423, 2-{[6-({5-chloro-2-[4-({1-[2-(2,6-dioxopiperidin-3-yl)-1-oxo-2,3-dihydro-1H-isoindol-4-yl]piperidin-4-yl}methyl)piperazin-1-yl]pyrimidin-4-yl}amino)-2-oxo-1-(propan-2-yl)-1,2-dihydroquinolin-3-yl]oxy}-N-methylacetamide] | ≥ 70 | < 10 |
| CNC(=O)COc1cc2cc(Nc3nc(N4CCC(OC5CC6(C5)CN(c5cccc7c5CN(C5CCC(=O)NC5=O)C7=O)C6)CC4)ncc3Cl)ccc2n(C(C)C)c1=O (stereo not shown) [compound 424, 2-{[6-({5-chloro-2-[4-({2-[2-(2,6-dioxopiperidin-3-yl)-1-oxo-2,3-dihydro-1H-isoindol-4-yl]-2-azaspiro[3.3]heptan-6-yl}oxy)piperidin-1-yl]pyrimidin-4-yl}amino)-2-oxo-1-(propan-2-yl)-1,2-dihydroquinolin-3-yl]oxy}-N-methylacetamide] | ≥ 70 | 10 to 50 |

Further lines, results first:

| Dmax [%] | IC50 [nM] | SMILES |
| --- | --- | --- |
| ≥ 70 | < 10 | CNC(=O)COc1cc2cc(Nc3nc(N4CCC(CN5CCC6(CC5)CN(c5cccc7c5C(=O)N(C5CCC(=O)NC5=O)C7=O)C6)CC4)ncc3Cl)ccc2n(C(C)C)c1=O (stereo not shown) [compound 418, 2-{[6-({5-chloro-2-[4-({2-[2-(2,6-dioxopiperidin-3-yl)-1,3-dioxo-2,3-dihydro-1H-isoindol-4-yl]-2,7-diazaspiro[3.5]nonan-7-yl}methyl)piperidin-1-yl]pyrimidin-4-yl}amino)-2-oxo-1-(propan-2-yl)-1,2-dihydroquinolin-3-yl]oxy}-N-methylacetamide] |
| ≥ 70 | – | CNC(=O)COc1cc2cc(Nc3nc(N4CCC(CN5CCC6(CC5)CN(c5cccc(C(=O)NC7CCC(=O)NC7=O)c5F)C6)CC4)ncc3Cl)ccc2n(C(C)C)c1=O (stereo not shown) [compound 419, 3-[7-({1-[5-chloro-4-({3-[(methylcarbamoyl)methoxy]-2-oxo-1-(propan-2-yl)-1,2-dihydroquinolin-6-yl}amino)pyrimidin-2-yl]piperidin-4-yl}methyl)-2,7-diazaspiro[3.5]nonan-2-yl]-N-(2,6-dioxopiperidin-3-yl)-2-fluorobenzamide] |
| < 50 | 50 to 100 | CNC(=O)COc1cc2cc(Nc3nc(N4CCC(CN5CCC6(CC5)CN(c5cccc(C(=O)NC7CCC(=O)NC7=O)c5OC)C6)CC4)ncc3Cl)ccc2n(C(C)C)c1=O (stereo not shown) [compound 420, 3-[7-({1-[5-chloro-4-({3-[(methylcarbamoyl)methoxy]-2-oxo-1-(propan-2-yl)-1,2-dihydroquinolin-6-yl}amino)pyrimidin-2-yl]piperidin-4-yl}methyl)-2,7-diazaspiro[3.5]nonan-2-yl]-N-(2,6-dioxopiperidin-3-yl)-2-methoxybenzamide] |
